US20180021278A1, “TREATMENT OR PREVENTION OF INFLAMMATION USING SERINE” (NESTEC S.A., priority 2015, published 2018)

Tested on: DSS-induced colitis
Test: DSS-induced colitis in rats, histological total colitis score of colon sections (HE staining)
Assay type: in vivo
Details: male Sprague-Dawley rats, 5% DSS D0-D8 then 2% DSS D9-D28, control diet supplemented with 10 g/kg dry matter serine (DSS-SER) vs alanine-supplemented DSS-ALA group
Description: The experimental procedures were carried out in accordance to European guidelines for the care and use of laboratory animals (Directive 2010/63/UE). 30 male Sprague-Dawley rats from Janvier (France), aged […] and weighting around 500/700g on the day of arrival, were used for this study. Animals were individually housed in cages. During the study, they had free access to food and drinking water or a dextran sulfate sodium (DSS, MW 36-44 kDa, ICN Biomedicals) solution ad libitum. Colitis was induced by treating rats with 5% DSS from D0 to D8 (acute colitis) and then 2% DSS from D9 to D28 (chronic colitis). DSS was dissolved in autoclaved water and provided ad libitum to the rats. Animals of the control group were given water not containing DSS from D0 to D28.
3 groups of rats received the following treatment and diets: […]
At the end of the experiment (D28), animals were anesthetized using a combination of ketamine and xylasine and then euthanized by cervical dislocation. […] A score (ranging from 0 to 3) was finally determined for each criterion on each colon section and a total score was calculated.

N[C@@H](CO)C(=O)O [Serine, serine]
Total colitis score (sum of 0-3 scores for mucosal degeneration, mucosal regeneration and hyperplasia, acute and sub-acute inflammation) (p<0.05): significantly lower | Total colitis score (sum of 0-3 scores for mucosal degeneration, mucosal regeneration and hyperplasia, acute and sub-acute inflammation) (p<0.05, listed as serine): reduced colitis
